Assay results taken from patent publication US10105372B2, “Methods of treating obesity using antioxidant inflammation modulators” (REATA PHARMACEUTICALS, INC., priority 2010, dated 2018).
Where “and” joins values, the source holds several entries; their conditions need not be identical. Identical values can stand only once. Marks after values point to notes of the source that are not given here.

What was measured:
Nrf2 = Nrf2 activity in blood cells in clinical trials; format: in vivo, human; conditions: at therapeutic doses
From the text: One AIM, bardoxolone methyl (BARD), is in advanced clinical trials for the treatment of chronic kidney disease.

[1] = Phase 2b/3 trial, estimated GFR and CKD stage; format: in vivo, human; conditions: for patients with improvement in CKD stage: Stage 4 to 3b or 3b to 3a; for Change from baseline eGFR, mean ± SE: longitudinal model
Experimental: Weight measurements were included in the study as a basic clinical parameter. […] Screening estimated GFR was calculated as the mean of two estimated GFR results (differing no more than 25%) collected at least 5 days apart within a 3-week period. […] Exclusion criteria included type 1 diabetes, non-diabetic kidney disease, hemoglobin A1c>10%, QTc […] interval >450 milliseconds, evidence of hepatic dysfunction, and recent cardiovascular disease. […] Study drug was taken orally once daily in the morning one hour prior to food intake. Dose titration occurred as follows: (1) placebo; (2) 25 mg; (3) 25 mg, increased to 75 mg after 4 weeks; and (4) 25 mg, increased to 75 mg after 4 weeks, further increased to 150 mg after an additional 4 weeks. Randomization was stratified by CKD stage (3b versus 4), urinary albumin to creatinine ratio (ACR; ≤ versus >300 mg/g), and glucose control (hemoglobin A1c< versus ≥7%). An independent Data Safety Monitoring Board monitored patient safety. Estimated GFR and routine safety laboratory testing was done at screening and every four weeks thereafter using a central laboratory. Adverse events and clinical laboratory parameters were assessed at each visit. Analysis of the primary outcome, change from baseline estimated GFR at Week 24, occurred after all randomized patients completed Week 24 or previously discontinued study. Exploratory outcomes included change from baseline at Week 24 in serum creatinine, blood urea nitrogen, serum phosphorus, uric acid, ACR, hemoglobin A1c, and intact parathyroid hormone.

[2] = Phase 2 clinical trial, patient body weight and tolerability; format: in vivo, human
Experimental: See Example 1, below. […] In this study, the protocol stipulated that patient weights were to be taken at baseline (D−1=1 day before initiation of dosing), Day 28, and Day 56. […] In this study, the protocol stipulated that patient weights were to be taken at baseline (D−1=1 day before initiation of dosing), Day 28, and Day 56. […] Prior to initiation of treatment, basic clinical observations (e.g., weight, blood pressure, height) were recorded along with baseline values for serum creatinine, blood urea nitrogen, serum phosphorus, serum uric acid, angiotensin II, fasting glucose, hemoglobin A1c, circulating endothelial cells (CECs), and iNOS-positive CECs.

[3] = Phase 2 clinical trial, renal function, glycemic control, circulating endothelial cells; format: in vivo, human
From the text: See U.S. Patent Application Publication 2009/0326063A1, which is incorporated by reference herein in its entirety. […] In this study, the protocol stipulated that patient weights were to be taken at baseline (D−1=1 day before initiation of dosing), Day 28, and Day 56. Weight data were available for all but one patient who started the study (a baseline weight was not recorded for this patient). In the remaining patients, 14 of 17 had lost weight at Day 28 (mean weight loss was 1.6% of baseline weight) and 17 of 17 had lost weight at Day 56 (mean weight loss was 3.7% of baseline, with a median of 3.1%). […] Prior to initiation of treatment, basic clinical observations (e.g., weight, blood pressure, height) were recorded along with baseline values for serum creatinine, blood urea nitrogen, serum phosphorus, serum uric acid, angiotensin II, fasting glucose, hemoglobin A1c, circulating endothelial cells (CECs), and iNOS-positive CECs. […] Reductions of more than 10% were also observed in BUN, serum creatinine, uric acid, and urinary albumin creatinine ratio.

[4] = 12-month toxicity study, whole blood exposure; format: in vivo, cynomolgus monkeys; conditions: Days 1 and 28; 30, 100 and 300 mg/kg/day oral gavage
Experimental: All the animals were healthy and within normal weights for their age at the start of the study. The dose levels were 0, 30/5, 100/30, and 300 mg/kg/day and administered at a dose volume of 3 mL per dose. The control group received the vehicle in the same manner as the treated groups. Just prior to administration, the test article for each animal was added to the syringe containing the vehicle for each animal and vortexed until thoroughly mixed to achieved the desired concentrations of 30, 100, and 300 mg/mL through Day 42 (Week 6). During administration, the syringe containing the test article preparation for each animal was pushed through the gavage tube. The 1 mL vehicle rinse was then added to the dosing syringe and administered. After administration of both volumes, a 5 mL flush of the vehicle was used to rinse the gavage tube and ensure that the entire amount of the test article was administered to the animal. […] Therefore, dose levels were adjusted so that different blood exposures could be examined. During Week 7 dosing for all animals was stopped for four days (Days 43 to 46). The initial dose levels of 30 and 100 mg/kg/day were reduced to 5 and 30 mg/kg/day, respectively, and dosing was resumed on Day 47 through Day 353. Individual doses were based on the most recent body weights.

[5] = Week 24, all bardoxolone methyl patients
[6] = Stratum 2, All Patients (n = 18), change

COC(=O)[C@]12CCC(C)(C)C[C@H]1[C@H]1C(=O)C=C3[C@@]4(C)C=C(C#N)C(=O)C(C)(C)[C@@H]4CC[C@@]3(C)[C@]1(C)CC2 [bardoxolone methyl]
Nrf2 activity in blood cells (Nrf2): induces Nrf2 activity | patients with improvement in CKD stage ([1]; 25 mg group): 53% | patients with improvement in CKD stage ([1]; 75 mg group): 69% | patients with improvement in CKD stage ([1]; 150 mg group): 61% | estimated GFR, mean increases compared to placebo ([1]; Week 24, 25 mg group): 8.3±1.1 mL/min/1.73 m^2 | Change from baseline eGFR, difference between bardoxolone methyl and placebo, mean ± SE ([1]; Week 24, 25 mg vs placebo): 8.2 ± 1.5 mL/min/1.73 m^2 | Change from baseline eGFR, mean ± SE ([1]; Week 24, 25 mg): 8.3 ± 1.1 mL/min/1.73 m^2 | estimated GFR, mean increases compared to placebo ([1]; Week 24, 75 mg group): 11.5±1.1 mL/min/1.73 m^2 | Change from baseline eGFR, difference between bardoxolone methyl and placebo, mean ± SE ([1]; Week 24, 75 mg vs placebo): 11.4 ± 1.5 mL/min/1.73 m^2 | Change from baseline eGFR, mean ± SE ([1]; Week 24, 75 mg): 11.5 ± 1.1 mL/min/1.73 m^2 | estimated GFR, mean increases compared to placebo ([1]; Week 24, 150 mg group): 10.6±1.1 mL/min/1.73 m^2 | Change from baseline eGFR, difference between bardoxolone methyl and placebo, mean ± SE ([1]; Week 24, 150 mg vs placebo): 10.5 ± 1.5 mL/min/1.73 m^2 | Change from baseline eGFR, mean ± SE ([1]; Week 24, 150 mg): 10.6 ± 1.1 mL/min/1.73 m^2 | patients with more than a 10% increase in estimated GFR [1, 5]: 74% | patients with more than a 50% increase in estimated GFR [1, 5]: 24% | Change from baseline eGFR, difference between bardoxolone methyl and placebo, mean ± SE ([1]; Week 24, combined vs placebo): 10.0 ± 1.3 mL/min/1.73 m^2 | time from treatment initiation to observed increases in estimated GFR ([1]; bardoxolone methyl groups): ≤ 4 weeks | time of peak increase in estimated GFR ([1]; bardoxolone methyl groups, stable through Week 24): 12 Week | patients with worsening of CKD stage ([1]; each bardoxolone methyl group (2 patients)): 4% | mean weight loss ([2]; Day 28): 1.6 % of baseline weight | patients who had lost weight at Day 28 ([2]; Day 28, 25 mg once per day): 14 of 17 | mean weight loss ([2]; Day 56): 3.7 % of baseline | median weight loss ([2]; Day 56, of baseline): 3.1% | patients who had lost weight at Day 56 ([2]; Day 56, 25 mg/day 28 days then 75 mg/day 28 days): 17 of 17 | patients who lost more than 2% of their baseline weight ([2]; between Day −1 and Day 56): all but three | Weight D28 ([2]; individual CKD/Type 2 diabetes patients, Day 28, 25 mg once per day oral): 80.7 kg and 75.7 kg and 108.9 kg (2×) and 80.3 kg and 112.9 kg and 78.9 kg and 88.5 kg and 104.3 kg and 169.3 kg and 52.6 kg and 83.5 kg and 159.7 kg and 114 kg and 92.1 kg and 89.9 kg and 88.0 kg | Percent Change D28/D-1 (weight) ([2]; individual patients, Day 28 vs baseline, 25 mg/day): 0.0% (2×) and −0.7% and −2.4% (2×) and −1.6% and −3.5% and −1.2% and −8.5% and −1.4% and −0.1% and −12.8% and −0.5% and 0.3% and −0.3% and −1.0% and −3.0% | Weight D56 ([2]; individual patients, Day 56, 25 mg/day 28 days then escalated to 75 mg/day 28 days): 75.7 kg and 74.4 kg and 107.0 kg and 78.5 kg and 97.1 kg and 108.0 kg and 111.1 kg and 77.1 kg and 88 kg and 102.1 kg and 165.9 kg and 52.2 kg and 80.3 kg and 157.9 kg and 110.4 kg and 87.1 kg | Weight D56 ([2]; individual patients, Day 56, start dose 25 mg, escalated dose N/A): 91.6 kg and 87.4 kg | Percent Change D56/D-1 (weight) ([2]; individual patients, Day 56 vs baseline, 25 mg/day then escalated to 75 mg/day): −6.2% and −2.4% and −4.1% and −3.8% and −6.9% and −3.2% and −2.8% and −10.6% and −2.0% and −2.1% and −13.4% and −4.3% and −0.8% and −3.5% and −1.0% | Percent Change D56/D-1 (weight) ([2]; individual patients, Day 56 vs baseline, start dose 25 mg, escalated dose N/A): −1.5% and −5.7% | Weight D28, Mean ([2]; mean of all patients, Day 28): 99.4 kg | Percent Change D28/D-1 (weight), Mean ([2]; mean of all patients, Day 28 vs baseline): −1.6% | Weight D56, Mean ([2]; mean of all patients, Day 56): 97.3 kg | Percent Change D56/D-1 (weight), Mean ([2]; mean of all patients, Day 56 vs baseline): −3.7% | tolerability ([2]; patients with Type 2 diabetes and CKD, 56 days): very well tolerated | CECs ([3]; Phase 2 study): Significant reductions | iNOS-positive CECs ([3]; Phase 2 study): Significant reductions | reduction in BUN ([3]; Phase 2 study): more than 10% | reduction in serum creatinine ([3]; Phase 2 study): more than 10% | reduction in uric acid ([3]; Phase 2 study): more than 10% | Patients with eGFR Increase ([3]; Stratum 2, All Patients (n = 18)): 89% | Blood Urea Nitrogen [3, 6]: −14.9% | Circulating Endothelial Cells [3, 6]: −34.8%^† | Creatinine Clearance [3, 6]: +38.2%^† | Phosphorus [3, 6]: −2.5% | Serum Creatinine [3, 6]: −17.5%** | Uric Acid [3, 6]: −13.3%^† | eGFR [3, 6]: +24.1%*** | iNOS+ Circulating Endothelial Cells [3, 6]: −65.8%* | Hemoglobin A1c ([3]; Stratum 2, patients with BL ≥ 7.0%, change): −0.1% | eGFR increase ([3]; after 28 days of treatment): approximately 10% | eGFR increase compared to baseline ([3]; after 56 days of treatment): more than 20% | exposure in whole blood samples [4]: no significant differences in exposure across the three dose levels
